{
  "source": "patent US6372446B1",
  "about": "“Method of selectively determining a fungal biomass” (Mycometer ApS, priority 1997, dated 2002)",
  "test_in_all_cases": "Screening of fungi for enzyme activity with 4-methylumbelliferone-labelled substrates",
  "format_in_all_cases": "cell-based",
  "conditions_in_all_cases": "substrate 10 μM, 25° C., pH 5",
  "key": {"[1]": {"system": "Mucor racemosus (AAS 310)"}, "[2]": {"system": "Paecilomyces farinosus (AGM 5)"}, "[3]": {"system": "Penicillium commune (IBT 13713)"}, "[4]": {"system": "Cladosporium herbarum (AGM 8)"}, "[5]": {"system": "Rhizomucor pusillus (AAS 300)"}, "[6]": {"system": "Aspergillus oryzae (AGM 11)"}, "[7]": {"system": "Sodaria fimicola (AAS 17)"}, "[8]": {"system": "Penicillium solitum (IBT 13771)"}, "[9]": {"system": "Ascobolus crenulatus (AAS 1)"}, "Eurotium sp. (AAS 36)": {"system": "Eurotium sp. (AAS 36)"}, "[10]": {"system": "Schizophyllum commune (AGM 25)"}, "[11]": {"system": "Trametes versicolor (AGM 24)"}, "[12]": {"system": "Aureobasidium pullulans (QM 3092)"}, "[13]": {"system": "Aspergillus versicolor (IBT 13738)"}},
  "data": [
    {"smiles": "Cc1cc(=O)oc2cc(O[C@H]3O[C@H](CO)[C@@H](O)[C@H](O)[C@H]3O)ccc12", "note": "[substrate 7, 4-methylumbelliferyl α-D-glucoside]", "values": [
      {"measurement": "Enzyme activity: amount of released 4-methylumbelliferone", "setting": "[1]; mineral medium", "value": 0, "unit": "µmol"},
      {"measurement": "Enzyme activity: amount of released 4-methylumbelliferone during 5 hours of incubation", "setting": "[1]; vegetable juice medium", "value": 0, "unit": "µmol"},
      {"measurement": "Enzyme activity: amount of released 4-methylumbelliferone", "setting": "[2]; mineral medium", "value": 0, "unit": "µmol"},
      {"measurement": "Enzyme activity: amount of released 4-methylumbelliferone during 5 hours of incubation", "setting": "[2]; vegetable juice medium", "value": 0, "unit": "µmol"},
      {"measurement": "Enzyme activity: amount of released 4-methylumbelliferone", "setting": "[3]; mineral medium", "value": 0, "unit": "µmol"},
      {"measurement": "Enzyme activity: amount of released 4-methylumbelliferone during 5 hours of incubation", "setting": "[3]; vegetable juice medium", "value": 0, "unit": "µmol"},
      {"measurement": "Enzyme activity: amount of released 4-methylumbelliferone", "setting": "[4]; mineral medium", "value": 0, "unit": "µmol"},
      {"measurement": "Enzyme activity: amount of released 4-methylumbelliferone during 5 hours of incubation", "setting": "[4]; vegetable juice medium", "value": 0, "unit": "µmol"},
      {"measurement": "Enzyme activity: amount of released 4-methylumbelliferone", "setting": "[5]; mineral medium", "value": 0, "unit": "µmol"},
      {"measurement": "Enzyme activity: amount of released 4-methylumbelliferone during 5 hours of incubation", "setting": "[5]; vegetable juice medium", "value": "* (0.4 ≦ * < 1)"},
      {"measurement": "Enzyme activity: amount of released 4-methylumbelliferone", "setting": "[6]; mineral medium", "value": 0, "unit": "µmol"},
      {"measurement": "Enzyme activity: amount of released 4-methylumbelliferone during 5 hours of incubation", "setting": "[6]; vegetable juice medium", "value": 0, "unit": "µmol"},
      {"measurement": "Enzyme activity: amount of released 4-methylumbelliferone", "setting": "[7]; mineral medium", "value": 0, "unit": "µmol"},
      {"measurement": "Enzyme activity: amount of released 4-methylumbelliferone during 5 hours of incubation", "setting": "[7]; vegetable juice medium", "value": "** (1 ≦ ** 2)"},
      {"measurement": "Enzyme activity: amount of released 4-methylumbelliferone", "setting": "[8]; mineral medium", "value": 0, "unit": "µmol"},
      {"measurement": "Enzyme activity: amount of released 4-methylumbelliferone during 5 hours of incubation", "setting": "[8]; vegetable juice medium", "value": 0, "unit": "µmol"},
      {"measurement": "Enzyme activity: amount of released 4-methylumbelliferone", "setting": "[9]; mineral medium", "value": 0, "unit": "µmol"},
      {"measurement": "Enzyme activity: amount of released 4-methylumbelliferone during 5 hours of incubation", "setting": "[9]; vegetable juice medium", "value": 0, "unit": "µmol"},
      {"measurement": "Enzyme activity: amount of released 4-methylumbelliferone", "setting": "Eurotium sp. (AAS 36); mineral medium", "value": 0, "unit": "µmol"},
      {"measurement": "Enzyme activity: amount of released 4-methylumbelliferone during 5 hours of incubation", "setting": "Eurotium sp. (AAS 36); vegetable juice medium", "value": 0, "unit": "µmol"},
      {"measurement": "Enzyme activity: amount of released 4-methylumbelliferone", "setting": "[10]; mineral medium", "value": 0, "unit": "µmol"},
      {"measurement": "Enzyme activity: amount of released 4-methylumbelliferone during 5 hours of incubation", "setting": "[10]; vegetable juice medium", "value": 0, "unit": "µmol"},
      {"measurement": "Enzyme activity: amount of released 4-methylumbelliferone", "setting": "[11]; mineral medium", "value": 0, "unit": "µmol"},
      {"measurement": "Enzyme activity: amount of released 4-methylumbelliferone during 5 hours of incubation", "setting": "[11]; vegetable juice medium", "value": 0, "unit": "µmol"},
      {"measurement": "Enzyme activity: amount of released 4-methylumbelliferone during 5 hours of incubation", "setting": "[12]; Aureobasidium pulluians (QM 3092), vegetable juice medium", "value": "*** (2 ≦ ***)"},
      {"measurement": "Enzyme activity: amount of released 4-methylumbelliferone", "setting": "[12]; Aureobasidium pullulans (QM 3092), mineral medium", "value": "*** (2 ≦ ***)"},
      {"measurement": "Enzyme activity: amount of released 4-methylumbelliferone", "setting": "[13]; mineral medium", "value": 0, "unit": "µmol"},
      {"measurement": "Enzyme activity: amount of released 4-methylumbelliferone during 5 hours of incubation", "setting": "[13]; vegetable juice medium", "value": 0, "unit": "µmol"}
    ]}
  ]
}
